{"source": "paper PMC3501146", "about": "(ACS Chemical Biology, 2012)", "origin": "cited, not measured here", "tested_on": "Lactococcus lactis subsp. cremoris HP", "settings": "indicator strain L. lactis subsp. cremoris HP"}
{"substance": "nisin (ITSISLCTPGCKTGALMGCNMKTATCHCSIHVSK; not fully specified; Lantibiotic nisin-A; UniProt P13068 24-57, looked up)", "values": [{"measurement": "MIC against L. lactis subsp. cremoris HP (nisin)", "value": 0.032, "unit": "µM"}]}
